Our source for the EC50 and IC50 values is US11572398B2, “GLP-1 derivatives and uses thereof” (Novo Nordisk A/S, priority 2014, dated 2023).

The structures appear in SMILES notation. Where two headings read alike, the source gives them in different places.

A word on the EC50: it is the concentration needed to bring the measured effect to its halfway point. Usually IC50 stands for the concentration at which inhibition is half-maximal.

For test [1], the target named is T1, human GLP-1 receptor (Homo sapiens, UniProt P43220).
T1 construct: expressed in transfected cells; host or cells: BHK cells (parent line BHKTS13), clone FCW467-12A; membrane preparation
As to the kind of experiment: In vitro potency: CRE luciferase reporter gene assay in BHK cells expressing the human GLP-1 receptor. The note with it: whole cell reporter gene assay, BHK cells, human GLP-1 receptor; average of at least two replicates; read-out: EC50. The test is classed as cell-based. How it is done:
The purpose of this example is to test the activity, or potency, of the GLP-1 derivatives in vitro. The in vitro potency is the measure of human GLP-1 receptor activation in a whole cell assay.
In vitro potency was determined by measuring the response of the human GLP-1 receptor in a reporter gene assay. The assay was performed in a stably transfected BHK cell line that expresses the human GLP-1 receptor and contains the DNA for the cAMP response element (CRE) coupled to a promoter and the gene for firefly luciferase (CRE luciferase). When the human GLP-1 receptor is activated it results in the production of cAMP, which in turn results in the luciferase protein being expressed. When assay incubation is completed the luciferase substrate (luciferin) is added and the enzyme converts luciferin to oxyluciferin to produce bioluminescence. The luminescence is measured as the readout for the assay.
The cells were cultured at 5% CO2 in cell culture medium. They were aliquoted and stored in liquid nitrogen. Before each assay an aliquot was taken up and washed twice in PBS before being suspended at the desired concentration in the assay specific buffer.
The assay buffer consisted of 2% ovalbumin and 0.2% Pluronic F-68 in assay medium.
1) Cell stocks were thawed in a 37° C. water bath.
2) Cells were washed three times in PBS.
3) Cells were counted and adjusted to 5×10^3 cells/50 μl (1×10^5 cells/ml) in assay medium. A 50 μl aliquot of cells was transferred to each well in the assay plate.
4) Stocks of the test compounds and reference compounds were diluted to a concentration of 0.2 μM in assay buffer. […] 8) A 100 μl aliquot of steadylite plus reagent was added to each well of the assay plate. 9) Each assay plate was covered with aluminum foil to protect it from light and shaken for 30 min at room temperature. 10) Each assay plate was read in a BioTek Synergy 2 Multi-Mode Reader. Calculations and Results
The data from the BioTek Synergy 2 Multi-Mode Reader were transferred to GraphPad Prism software. The software performs a non-linear regression (log(agonist) vs response (three parameters)).
A minimum of two replicates were measured for each sample. The reported EC50 values are averages of all of the measured values for each compound.

Test [2] has as its target T1, human GLP-1 receptor. As to the kind of experiment: GLP-1 receptor binding: competitive binding assay (125I-GLP-1, SPA) on isolated membranes at low and high HSA. How it is done:
The purpose of this example is to test the receptor binding of the GLP-1 derivatives in vitro. The receptor binding is a measure of affinity of a derivative for the human GLP-1 receptor.
Each derivative is added in a series of concentrations to isolated membranes containing the human GLP-1 receptor and displacement of the labelled ligand is monitored. The receptor binding is reported as the concentration at which half of the labelled ligand is displaced from the receptor, the IC50 value.
Buffer 1 consisted of 20 mM Na-HEPES plus 10 mM EDTA and pH was adjusted to 7.4. Buffer 2 consisted of 20 mM Na-HEPES plus 0.1 mM EDTA and pH was adjusted to 7.4. Assay buffer consisted of 50 mM HEPES supplemented with 5 mM EGTA, 5 mM MgCl2, 0.005% Tween 20 and pH was adjusted to 7.4. An 8% albumin stock consisted of HSA dissolved at 8% (w/v) in assay buffer. An 0.02% albumin stock consisted of HSA dissolved at 0.02% (w/v) in assay buffer.
The cells express the human GLP-1 receptor.
The cells were grown at 5% CO2 in DMEM, 10% fetal calf serum, 1% Pen/Strep (Penicillin/Streptomycin) and 1.0 mg/ml of the selection marker G418. To make a membrane preparation the cells were grown to approximately 80% confluence. The cells were washed twice in phosphate-buffered saline and harvested. The cells were pelleted using a brief centrifugation and the cell pellet was kept on ice. […] The homogenate was centrifuged for 15 minutes. The pellet was re-suspended (homogenised) in 10 ml buffer 2 and centrifuged. This step was repeated once more. The resulting pellet was re-suspended in buffer 2 and the protein concentration was determined. The membranes were aliquoted and stored at minus 80° C.
1. […] Assay continued with step 3.
2. For the receptor binding assay in the presence of high HSA (2%) 50 μl of the 8% albumin stock was added to each well of an assay plate. Assay continued with step 3.
4. Cell membrane aliquots were thawed and diluted to their working concentration. Fifty μl were added to each well in the assay plate.
5. WGA SPA beads were suspended in assay buffer at 20 mg/ml. The suspension was diluted to 10 mg/ml in assay buffer just prior to addition to the assay plate. Fifty μl were added to each well in the assay plate.
6. […] A 25 μl aliquot was reserved for measuring total counts/well.
7. The assay plate was incubated for 2 h at 30° C.
8. The assay plate was centrifuged for 10 min.
9. The assay plate was read in a Packard TopCount NXT instrument.
The data from the TopCount instrument were transferred to GraphPad Prism software. Individual replicates were analysed using non-linear regression. IC50 values were calculated by the software and reported in nM. The reported values are averages of all of the measured values for each compound.

Setting [3] is: Low HSA IC50, low HSA (max. 0.001% final assay concentration).
Setting [4] is: high HSA (2.0% final assay concentration), read-out: High HSA IC50.

T1 sequence (P43220 24-463): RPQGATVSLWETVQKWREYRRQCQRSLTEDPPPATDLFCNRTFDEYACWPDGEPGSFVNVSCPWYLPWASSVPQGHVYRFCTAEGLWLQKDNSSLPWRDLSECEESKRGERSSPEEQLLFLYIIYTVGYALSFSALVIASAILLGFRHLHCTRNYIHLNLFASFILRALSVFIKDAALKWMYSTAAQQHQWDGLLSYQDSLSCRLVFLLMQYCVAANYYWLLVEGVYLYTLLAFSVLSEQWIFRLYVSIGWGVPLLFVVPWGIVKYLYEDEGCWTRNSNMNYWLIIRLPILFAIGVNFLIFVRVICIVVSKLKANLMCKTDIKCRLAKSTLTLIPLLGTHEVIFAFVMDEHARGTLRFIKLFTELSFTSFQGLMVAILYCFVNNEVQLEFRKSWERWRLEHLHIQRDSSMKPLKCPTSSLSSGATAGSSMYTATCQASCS

`CC[C@H](C)[C@H](NC(=O)[C@H](Cc1ccccc1)NC(=O)[C@H](CCC(=O)O)NC(=O)[C@H](CCCNC(=N)N)NC(=O)[C@H](C)NC(=O)[C@H](C)NC(=O)[C@H](CCC(N)=O)NC(=O)[C@H](CCC(=O)O)NC(=O)[C@H](CCC(=O)O)NC(=O)[C@H](CC(C)C)NC(=O)[C@H](Cc1ccc(O)cc1)NC(=O)[C@H](CO)NC(=O)[C@H](CO)NC(=O)[C@@H](NC(=O)[C@H](CC(=O)O)NC(=O)[C@H](CO)NC(=O)[C@@H](NC(=O)[C@H](Cc1ccccc1)NC(=O)[C@@H](NC(=O)CNC(=O)[C@H](CCC(=O)O)NC(=O)C(C)(C)NC(=O)[C@@H](N)Cc1c[nH]cn1)[C@@H](C)O)[C@@H](C)O)C(C)C)C(=O)N[C@@H](C)C(=O)N[C@@H](Cc1c[nH]c2ccccc12)C(=O)N[C@@H](CC(C)C)C(=O)N[C@H](C(=O)N[C@@H](CCCNC(=N)N)C(=O)NCC(=O)N[C@@H](CCCNC(=N)N)C(=O)N[C@@H](CCCCNC(=O)CN(CCCNC(=O)COCCOCCNC(=O)COCCOCCNC(=O)COCCOCCNC(=O)COCCOCCNC(=O)COCCOCCNC(=O)CC[C@H](NC(=O)[C@H]1CC[C@H](CNC(=O)CCCCCCCCCCCCCCCS(=O)(=O)O)CC1)C(=O)O)CCCNC(=O)COCCOCCNC(=O)COCCOCCNC(=O)COCCOCCNC(=O)COCCOCCNC(=O)COCCOCCNC(=O)CC[C@H](NC(=O)[C@H]1CC[C@H](CNC(=O)CCCCCCCCCCCCCCCS(=O)(=O)O)CC1)C(=O)O)C(=O)O)C(C)C` [Example 23, N{Epsilon-37}-[2-[bis[3-[[2-[2-[2-[[2-[2-[2-[[2-[2-[2-[[2-[2-[2-[[2-[2-[2-[[(4S)-4-carboxy-4-[[4-[(16-sulfohexadecanoylamino)methyl]cyclohexanecarbonyl]amino]butanoyl]amino]ethoxy]ethoxy]acetyl]amino]ethoxy]ethoxy]acetyl]amino]ethoxy]ethoxy]acetyl]amino]ethoxy]ethoxy]acetyl]amino]ethoxy]ethoxy]acetyl]amino]propyl]amino]acetyl]-[Aib8,Glu22,Arg26,Arg34,Lys37]-GLP-1-(7-37)-peptide]: in test [1], the EC50 amounted to 0.0014 nM. Besides, the half-inhibitory concentration (IC50) in test [2] (setting [3]) was found to be 0.14 nM; in test [2] (setting [4]), 16 nM.
In the same order, the values of `CC[C@H](C)[C@H](NC(=O)[C@H](Cc1ccccc1)NC(=O)[C@H](CCC(=O)O)NC(=O)[C@H](CCCNC(=N)N)NC(=O)[C@H](C)NC(=O)[C@H](C)NC(=O)[C@H](CCC(N)=O)NC(=O)[C@H](CCC(=O)O)NC(=O)[C@H](CCC(=O)O)NC(=O)[C@H](CC(C)C)NC(=O)[C@H](Cc1ccc(O)cc1)NC(=O)[C@H](CO)NC(=O)[C@H](CO)NC(=O)[C@@H](NC(=O)[C@H](CC(=O)O)NC(=O)[C@H](CO)NC(=O)[C@@H](NC(=O)[C@H](Cc1ccccc1)NC(=O)[C@@H](NC(=O)CNC(=O)[C@H](CCC(=O)O)NC(=O)C(C)(C)NC(=O)[C@@H](N)Cc1c[nH]cn1)[C@@H](C)O)[C@@H](C)O)C(C)C)C(=O)N[C@@H](C)C(=O)N[C@@H](Cc1c[nH]c2ccccc12)C(=O)N[C@@H](CC(C)C)C(=O)N[C@H](C(=O)N[C@@H](CCCNC(=N)N)C(=O)NCC(=O)N[C@@H](CCCNC(=N)N)C(=O)N[C@@H](CCCCNC(=O)CN(CCCNC(=O)COCCOCCNC(=O)COCCOCCNC(=O)COCCOCCNC(=O)COCCOCCNC(=O)COCCOCCNC(=O)COCCOCCNC(=O)CC[C@H](NC(=O)[C@H]1CC[C@H](CNC(=O)CCCCCCCCCCCCCCCS(=O)(=O)O)CC1)C(=O)O)CCCNC(=O)COCCOCCNC(=O)COCCOCCNC(=O)COCCOCCNC(=O)COCCOCCNC(=O)COCCOCCNC(=O)COCCOCCNC(=O)CC[C@H](NC(=O)[C@H]1CC[C@H](CNC(=O)CCCCCCCCCCCCCCCS(=O)(=O)O)CC1)C(=O)O)C(=O)O)C(C)C` [Example 24] are 0.0018 nM, 0.16 nM and 32 nM.
On to `CC[C@H](C)[C@H](NC(=O)[C@H](Cc1ccccc1)NC(=O)[C@H](CCC(=O)O)NC(=O)[C@H](CCCNC(=N)N)NC(=O)[C@H](C)NC(=O)[C@H](C)NC(=O)[C@H](CCC(N)=O)NC(=O)[C@H](CCC(=O)O)NC(=O)[C@H](CCC(=O)O)NC(=O)[C@H](CC(C)C)NC(=O)[C@H](Cc1ccc(O)cc1)NC(=O)[C@H](CO)NC(=O)[C@H](CO)NC(=O)[C@@H](NC(=O)[C@H](CC(=O)O)NC(=O)[C@H](CO)NC(=O)[C@@H](NC(=O)[C@H](Cc1ccccc1)NC(=O)[C@@H](NC(=O)CNC(=O)[C@H](CCC(=O)O)NC(=O)C(C)(C)NC(=O)[C@@H](N)Cc1c[nH]cn1)[C@@H](C)O)[C@@H](C)O)C(C)C)C(=O)N[C@@H](C)C(=O)N[C@@H](Cc1c[nH]c2ccccc12)C(=O)N[C@@H](CC(C)C)C(=O)N[C@H](C(=O)N[C@@H](CCCNC(=N)N)C(=O)NCC(=O)N[C@@H](CCCNC(=N)N)C(=O)N[C@@H](CCCCNC(=O)CN(CCCNC(=O)COCCOCCNC(=O)COCCOCCNC(=O)COCCOCCNC(=O)COCCOCCNC(=O)COCCOCCNC(=O)CC[C@H](NC(=O)CCCNC(=O)CCCCCCCCCCCCCCCS(=O)(=O)O)C(=O)O)CCCNC(=O)COCCOCCNC(=O)COCCOCCNC(=O)COCCOCCNC(=O)COCCOCCNC(=O)COCCOCCNC(=O)CC[C@H](NC(=O)CCCNC(=O)CCCCCCCCCCCCCCCS(=O)(=O)O)C(=O)O)C(=O)O)C(C)C` [Example 17, N{Epsilon-37}-[2-[bis[3-[[2-[2-[2-[[2-[2-[2-[[2-[2-[2-[[2-[2-[2-[[2-[2-[2-[[(4S)-4-carboxy-4-[4-(16-sulfohexadecanoylamino)butanoylamino]butanoyl]amino]ethoxy]ethoxy]acetyl]amino]ethoxy]ethoxy]acetyl]amino]ethoxy]ethoxy]acetyl]amino]ethoxy]ethoxy]acetyl]amino]ethoxy]ethoxy]acetyl]amino]propyl]amino]acetyl]-[Aib8,Glu22,Arg26,Arg34,Lys37]-GLP-1-(7-37)-peptide], for which the EC50 in test [1] stood at 0.0012 nM. In addition, the IC50 in test [2] (setting [4]) was 3.2 nM; in test [2] (low HSA (max. 0.001% final assay concentration), read-out: Low HSA IC50), 0.16 nM.
